Measurements as given in ChEMBL document CHEMBL2021860, “Structure-activity relationships and key structural feature of pyridyloxybenzene-acylsulfonamides as new, potent, and selective peroxisome proliferator-activated receptor (PPAR) γ Agonists” (Bioorg Med Chem, 2012).

Key:
[1] = Clearance in human liver microsomes at 1 umol/L after 20 mins by HPLC analysis in presence of NADPH; format: ADME, Microsome; settings: read-out: CLH
[2] = Clearance in rat liver microsomes at 1 umol/L after 20 mins by HPLC analysis in presence of NADPH; format: ADME, Microsome; settings: read-out: CLH
[3] = target: T1, Peroxisome proliferator-activated receptor gamma (Homo sapiens, UniProt P37231); assay: Transactivation of human PPARgamma1 expressed in CHO-K1 cells co-expressing RXRalpha and PPRE after 1 day by luciferase reporter gene assay; format: cell-based
T1 sequence (P37231 whole entry): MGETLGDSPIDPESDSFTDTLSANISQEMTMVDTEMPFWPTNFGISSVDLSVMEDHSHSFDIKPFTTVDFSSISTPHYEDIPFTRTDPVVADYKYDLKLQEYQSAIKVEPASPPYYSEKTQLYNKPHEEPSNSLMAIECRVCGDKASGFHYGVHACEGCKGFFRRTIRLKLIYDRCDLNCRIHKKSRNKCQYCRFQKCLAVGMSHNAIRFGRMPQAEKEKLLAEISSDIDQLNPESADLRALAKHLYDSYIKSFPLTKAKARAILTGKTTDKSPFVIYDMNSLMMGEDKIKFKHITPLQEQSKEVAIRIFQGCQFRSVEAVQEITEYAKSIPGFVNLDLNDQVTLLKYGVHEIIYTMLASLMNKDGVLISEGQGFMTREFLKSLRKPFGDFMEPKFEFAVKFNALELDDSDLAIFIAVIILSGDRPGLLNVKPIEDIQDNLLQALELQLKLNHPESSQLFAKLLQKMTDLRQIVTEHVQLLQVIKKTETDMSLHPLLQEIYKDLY

[4] = Dissociation constant, pKa of the compound; format: physicochemical
[5] = Clearance in human liver microsomes at 1 umol/L after 2 hrs by HPLC analysis in absence of NADPH; format: ADME, Microsome; settings: read-out: CLH
[6] = Clearance in rat liver microsomes at 1 umol/L after 2 hrs by HPLC analysis in absence of NADPH; format: ADME, Microsome; settings: read-out: CLH
[7] = AUC (0 to 24 hrs) in Wistar fatty rat at 0.18 mg/kg, po; format: ADME, organism-based; design: time < 24 hr, dose 0.18 mg/kg, route oral; settings: plasma
Rattus norvegicus [8] = assay: Antidiabetic activity in po dosed Wistar fatty rat type 2 diabetes model assessed as reduction on plasma triglyceride level administered once daily for 7 days measured by autoanalyzer relative to control; format: functional; settings: 168 h
[9] = target: T2, Peroxisome proliferator-activated receptor delta (Homo sapiens, UniProt Q03181); assay: Transactivation of human PPARdelta expressed in african green monkey COS1 cells after 1 day by luciferase reporter gene assay; format: cell-based, COS-1
T2 sequence (Q03181 whole entry): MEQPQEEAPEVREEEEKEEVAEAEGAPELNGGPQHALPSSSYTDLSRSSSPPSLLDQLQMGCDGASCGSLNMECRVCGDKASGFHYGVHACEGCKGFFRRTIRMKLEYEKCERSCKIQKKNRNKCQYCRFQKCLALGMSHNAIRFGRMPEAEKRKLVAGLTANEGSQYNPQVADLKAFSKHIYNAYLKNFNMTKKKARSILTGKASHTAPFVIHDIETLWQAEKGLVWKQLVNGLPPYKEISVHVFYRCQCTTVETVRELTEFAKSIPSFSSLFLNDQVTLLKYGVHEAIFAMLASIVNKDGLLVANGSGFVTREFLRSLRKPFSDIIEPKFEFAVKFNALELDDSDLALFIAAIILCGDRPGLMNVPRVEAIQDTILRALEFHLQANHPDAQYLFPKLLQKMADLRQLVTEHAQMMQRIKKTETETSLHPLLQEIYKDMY

[10] = target: T3, Peroxisome proliferator-activated receptor alpha (Homo sapiens, UniProt Q07869); assay: Transactivation of human PPARalpha expressed in african green monkey COS1 cells after 1 day by luciferase reporter gene assay; format: cell-based, COS-1
T3 sequence (Q07869 whole entry): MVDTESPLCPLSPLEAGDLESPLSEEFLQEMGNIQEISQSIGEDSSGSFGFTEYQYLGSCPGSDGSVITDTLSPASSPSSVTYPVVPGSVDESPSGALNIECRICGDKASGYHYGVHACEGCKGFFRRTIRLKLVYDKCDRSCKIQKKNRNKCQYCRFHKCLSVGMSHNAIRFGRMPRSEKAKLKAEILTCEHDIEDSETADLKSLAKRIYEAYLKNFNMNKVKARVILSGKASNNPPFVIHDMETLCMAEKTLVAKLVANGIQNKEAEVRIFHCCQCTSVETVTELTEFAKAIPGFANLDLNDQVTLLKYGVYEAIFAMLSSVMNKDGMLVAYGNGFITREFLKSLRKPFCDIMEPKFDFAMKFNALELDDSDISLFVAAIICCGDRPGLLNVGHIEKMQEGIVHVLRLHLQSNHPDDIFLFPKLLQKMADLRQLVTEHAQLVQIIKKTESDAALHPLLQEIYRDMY

[11] = target: T1, Peroxisome proliferator-activated receptor gamma; assay: Displacement of [3H]-AD-5061 from human GST-tagged PPARgamma
[12] = Cmax in Wistar fatty rat at 0.18 mg/kg, po; format: ADME, organism-based; design: dose 0.18 mg/kg, route oral; settings: in vivo
Rattus norvegicus [13] = assay: Antidiabetic activity in po dosed Wistar fatty rat type 2 diabetes model assessed as reduction on plasma glucose level administered once daily for 7 days measured by autoanalyzer relative to control; format: functional; settings: 168 h

CCCCCS(=O)(=O)NC(=O)/C(C)=C/c1ccc(OCCOC)cc1Oc1ncc(C(F)(F)F)cc1Cl
microsomal CLint at 1 µM [1]: 20 µL/min/mg | microsomal CLint at 1 µM [2]: 20 µL/min/mg

CCCCCNS(=O)(=O)NC(=O)CCc1ccc(OCCOC)cc1Oc1ncc(C(F)(F)F)cc1Cl
microsomal CLint at 1 µM [1]: 70 µL/min/mg | microsomal CLint at 1 µM [2]: 111 µL/min/mg

CCCCCS(=O)(=O)NC(=O)/C=C/c1ccc(OCCCOC)cc1Oc1ncc(C(F)(F)F)cc1Cl
microsomal CLint at 1 µM [1]: 16 µL/min/mg | microsomal CLint at 1 µM [2]: 15 µL/min/mg

CCCCCS(=O)(=O)NC(=O)/C=C/c1ccc(OCCO)cc1Oc1ncc(C(F)(F)F)cc1Cl
microsomal CLint at 1 µM [1]: < 1 µL/min/mg | microsomal CLint at 1 µM [2]: < 1 µL/min/mg

CCCCCS(=O)(=O)NC(=O)/C=C/c1ccc(OCCC(C)=O)cc1Oc1ncc(C(F)(F)F)cc1Cl
microsomal CLint at 1 µM [1]: 30 µL/min/mg | microsomal CLint at 1 µM [2]: 19 µL/min/mg | EC50 [3]: 59 nM

CCCCCS(=O)(=O)NC(=O)/C=C/c1ccc(OCCCS(C)(=O)=O)cc1Oc1ncc(C(F)(F)F)cc1Cl
microsomal CLint at 1 µM [1]: 6 µL/min/mg | microsomal CLint at 1 µM [2]: < 1 µL/min/mg | EC50 [3]: 320 nM

CCCCCS(=O)(=O)NC(=O)/C=C/c1ccc(OCCCC#N)cc1Oc1ncc(C(F)(F)F)cc1Cl
microsomal CLint at 1 µM [1]: 23 µL/min/mg | microsomal CLint at 1 µM [2]: 19 µL/min/mg

CCCCCNC(=O)CCc1ccc(OC(C)C)cc1Oc1ncc(C(F)(F)F)cc1Cl
EC50 [3]: 290 nM

CCCCCS(=O)(=O)NCCCc1ccc(OCCOC)cc1Oc1ncc(C(F)(F)F)cc1Cl
microsomal CLint at 1 µM [1]: 210 µL/min/mg | microsomal CLint at 1 µM [2]: 204 µL/min/mg | EC50 [3]: 32 nM

CCCCOC(=O)NCCCc1ccc(OCCOC)cc1Oc1ncc(C(F)(F)F)cc1Cl
EC50 [3]: 38 nM

CCCCNC(=O)OCCCc1ccc(OCCOC)cc1Oc1ncc(C(F)(F)F)cc1Cl
EC50 [3]: 48 nM

CCCCCS(=O)(=O)NC(=O)OCCCc1ccc(OCCOC)cc1Oc1ncc(C(F)(F)F)cc1Cl
microsomal CLint at 1 µM [1]: 90 µL/min/mg | microsomal CLint at 1 µM [2]: 35 µL/min/mg | pKa [4]: 4.6

CCCCCS(=O)(=O)NC(=O)CCc1ccccc1Oc1ncc(C(F)(F)F)cc1Cl
microsomal CLint at 1 µM [1]: 78 µL/min/mg | microsomal CLint at 1 µM [2]: 120 µL/min/mg | EC50 [3]: 61 nM

CCCCCS(=O)(=O)NC(=O)CCc1ccc(OC(C)C)cc1Oc1ncc(C(F)(F)F)cc1Cl
microsomal CLint at 1 µM [1]: 57 µL/min/mg | microsomal CLint at 1 µM [2]: 94 µL/min/mg

CCCCCS(=O)(=O)NC(=O)CCc1ccc(OCCOC)cc1Oc1ncc(C(F)(F)F)cc1Cl
microsomal CLint at 1 µM [1]: 77 µL/min/mg | metabolised at 2 h, 1 µM [5]: 50.1% | microsomal CLint at 1 µM [2]: 62 µL/min/mg | pKa [4]: 4.6 | metabolised at 2 h, 1 µM [6]: 13.6%

CCCCCS(=O)(=O)NC(=O)CCc1ccc(OCC(=O)N(CC)CC)cc1Oc1ncc(C(F)(F)F)cc1Cl
microsomal CLint at 1 µM [1]: 95 µL/min/mg | microsomal CLint at 1 µM [2]: 92 µL/min/mg

CCCCCS(=O)(=O)NC(=O)CCc1ccc(OCCN2CCCC2=O)cc1Oc1ncc(C(F)(F)F)cc1Cl
microsomal CLint at 1 µM [1]: 78 µL/min/mg | microsomal CLint at 1 µM [2]: 104 µL/min/mg

COCCCS(=O)(=O)NC(=O)CCc1ccc(OCCOC)cc1Oc1ncc(C(F)(F)F)cc1Cl
microsomal CLint at 1 µM [1]: 7 µL/min/mg | microsomal CLint at 1 µM [2]: 11 µL/min/mg | EC50 [3]: 11 nM

COCCOc1ccc(CCC(=O)NS(=O)(=O)c2ccccc2)c(Oc2ncc(C(F)(F)F)cc2Cl)c1
EC50 [3]: 32 nM

COCCOc1ccc(CCC(=O)NS(=O)(=O)c2ccc(Cl)cc2)c(Oc2ncc(C(F)(F)F)cc2Cl)c1
microsomal CLint at 1 µM [1]: 67 µL/min/mg | microsomal CLint at 1 µM [2]: 71 µL/min/mg | EC50 [3]: 8.6 nM

CCCCCS(=O)(=O)NC(=O)/C=C/c1ccc(OCCOC)cc1Oc1ncc(C(F)(F)F)cc1Cl
AUC(0-t) at 24 h [7]: 15300 ng·h/mL | ED25 (Rattus norvegicus [8]): 0.2 mg/kg | EC50 [9]: > 10000 nM | microsomal CLint at 1 µM [1]: 9 µL/min/mg | metabolised at 2 h, 1 µM [5]: 94.8% | EC50 [10]: > 10000 nM | microsomal CLint at 1 µM [2]: 6 µL/min/mg | IC50 [11]: 330 nM | metabolised at 2 h, 1 µM [6]: 87.3% | Cmax [12]: 946 ng/mL | ED25 (Rattus norvegicus [13]): 0.17 mg/kg

CCCCCS(=O)(=O)NC(=O)C(C)Cc1ccc(OCCOC)cc1Oc1ncc(C(F)(F)F)cc1Cl (stereo not drawn)
microsomal CLint at 1 µM [1]: 128 µL/min/mg | microsomal CLint at 1 µM [2]: 189 µL/min/mg

CCCCCS(=O)(=O)NC(=O)C(C)(C)Cc1ccc(OCCOC)cc1Oc1ncc(C(F)(F)F)cc1Cl
microsomal CLint at 1 µM [1]: 113 µL/min/mg | microsomal CLint at 1 µM [2]: 78 µL/min/mg

CCCCCS(=O)(=O)NC(=O)C1CC1c1ccc(OCCOC)cc1Oc1ncc(C(F)(F)F)cc1Cl (stereo not drawn)
microsomal CLint at 1 µM [1]: 40 µL/min/mg | metabolised at 2 h, 1 µM [5]: 73.8% | hepatic extraction ratio at 20 min, 1 µM [2]: 0.26 | metabolised at 2 h, 1 µM [6]: 81.7% | EC50 [3]: 5.5 nM

CCCCCS(=O)(=O)NC(=O)C(Cc1ccc(OCCOC)cc1Oc1ncc(C(F)(F)F)cc1Cl)OC (stereo not drawn)
microsomal CLint at 1 µM [1]: 72 µL/min/mg | microsomal CLint at 1 µM [2]: 15 µL/min/mg

CCCCCS(=O)(=O)NC(=O)OCc1ccc(OCCOC)cc1Oc1ncc(C(F)(F)F)cc1Cl
microsomal CLint at 1 µM [1]: 23 µL/min/mg | microsomal CLint at 1 µM [2]: 31 µL/min/mg

CCCCCS(=O)(=O)NC(=O)/C=C/c1ccc(OCCOC)cc1Oc1ccc(C(F)(F)F)cc1Cl
microsomal CLint at 1 µM [1]: 14 µL/min/mg | microsomal CLint at 1 µM [2]: 10 µL/min/mg | EC50 [3]: 94 nM

CCCCCS(=O)(=O)NC(=O)/C=C/c1ccc(OCCOC)cc1Oc1ccc(C(F)(F)F)cn1
microsomal CLint at 1 µM [1]: < 1 µL/min/mg | microsomal CLint at 1 µM [2]: < 1 µL/min/mg | EC50 [3]: > 10000 nM

CCCCCS(=O)(=O)NC(=O)/C=C/c1ccc(OCCOC)cc1Oc1ncccc1Cl
microsomal CLint at 1 µM [1]: 18 µL/min/mg | microsomal CLint at 1 µM [2]: 15 µL/min/mg | EC50 [3]: > 10000 nM

CCCCCS(=O)(=O)NC(=O)/C=C/c1ccc(OCCOC)cc1Oc1ncc(Cl)cc1Cl
microsomal CLint at 1 µM [1]: 9 µL/min/mg | microsomal CLint at 1 µM [2]: 9 µL/min/mg | EC50 [3]: 190 nM

CCCCCS(=O)(=O)NC(=O)/C=C/c1ccc(OCCOC)cc1Oc1ncc(NC(C)=O)cc1C
EC50 [3]: > 10000 nM

CCCCCS(=O)(=O)NC(=O)/C=C/c1ccc(OC(C)C)cc1Oc1ncc(C(F)(F)F)cc1Cl
microsomal CLint at 1 µM [1]: 19 µL/min/mg | microsomal CLint at 1 µM [2]: 19 µL/min/mg

CCCCCS(=O)(=O)NC(=O)/C=C/c1ccc(OCCOC2CC2)cc1Oc1ncc(C(F)(F)F)cc1Cl
microsomal CLint at 1 µM [1]: 25 µL/min/mg | microsomal CLint at 1 µM [2]: 17 µL/min/mg

CCCCCS(=O)(=O)NC(=O)/C=C/c1ccc(OCCOC)cc1Oc1ncc(N)cc1C
EC50 [3]: > 10000 nM
